These results are taken from US20130005720A1, “PHARMACEUTICAL COMPOSITION FOR TREATING CANCER AND APPLICATIONS THEREOF” (Academia Sinica, priority 2011, published 2013).

Assay [1] has as its system d(TTAGGG)4 (HT24), G4 structure of human telomere. The assay is described as follows: CD and 1H NMR spectra: conversion of G4 structure conformation of HT24 in K+ or Na+ solution. The assay is classed as binding. The settings on record: for formation of G4 structures and conversion of G4 structures of human telomeres from nonparallel to parallel forms: K+ solution, summary statement; for CD spectral change before and after annealing: 5 μM HT24, 1 eq. compound. The procedure:
(§1) All oligonucleotides were purchased from Bio Basic Inc. and used without further purification, including the single strand sequence derived from telomere of human chromosome, d(TTAGGG)4 (HT24) (SEQ ID NO: 1). Solutions of 10 mM Tris-HCl (pH 7.5) and its mixed solutions with KCl were mixed with each DNA sample and heated to 95° C. for 10 min first, cooled slowly to room temperature, and then stored for 48 h at 4° C. before use.
It is well-known that the linear parallel G4 structures, such as a propeller form, give a positive band at around 265 nm and a negative band at around 240 nm, while the anti-parallel G4 structures, such as a basket or chair form, show two positive bands at around 295 nm and 240 nm and a negative band at around 265 nm. In addition, the hybrid type G4 structures (3+1, including 3 parallel and 1 anti-parallel G4 structures) give a positive CD band at around 290 nm and a positive shoulder band at around 265 nm. The anti-parallel and hybrid type are both so-called “non-parallel” G4 structures. These spectral features are mainly attributed to the specific guanine stacking in various G4 structures.
(§2) J-815 spectropolarimeter (Jasco, Japan) with a 2 nm bandwidth at a 50 nm/min scan speed and a 0.2 nm step resolution was used to obtain CD spectra, and the following data was provided as an average of 10 scan results. The CD spectra were measured by monitoring the G4 structures under N2 over the range of 210 nm to 350 nm, and the thermal melting curves, as a function of temperature, were obtained by monitoring the CD intensity at 265 nm. Three independently scans were recorded for each sample. The melting temperature (Tm) was measured from the first differentiation of the melting curve.
5 μM HT24 and 1 eq. BMVC-8C3O (the equivalence ratio of HT24:BMVC-8C30 is 1:1) were used to detect whether BMVC-8C3O could convert the G4 structure conformation of HT24 from non-parallel to parallel.
The CD spectra of the HT24 and its complexes with 1 eq. BMVC-8C3O mixed in a 150 mM K^+ solution or in a 150 mM Na^+ solution were measured right after the mixing step under room temperature, as shown in FIGS. 2A and 2B (+BMVC-8C3O×1). Another set of spectra were obtained after these samples were annealed, i.e. heated at 95° C., and then gradually cooled down to room temperature (+BMVC-8C3O×1 anneal). […] These spectral features are consistent with the spectral changes of d[G3(T2AG3)3] (HT21) in K^+ or Na^+ solution upon the addition of 40% PEG (see Xue et al., 2007). That is to say, the peak at 265 nm (parallel G4 structure) increases and the peak at 290 nm (non-parallel G4 structure) decreases. This is, BMVC-8C3O and 40% PEG can converse the G4 structures from the non-parallel to the parallel.
BMVC-8C3O at 37° C., as a function of time.
In addition, 0.1 mM HT24 was mixed with 5 eq. BMVC-8C3O and dissolved in a H2O/D2O (90%/10%) solution containing 10 mM tris-HCl (pH 7.5) and 150 mM KCl to prepare samples for NMR (control sample was without BMVC-8C3O). Then the imino protons in the chemical shift range of 9-14 ppm were measured on a Bruker AVIII 800 MHz spectrometer using a pulsed-gradient spin-echo sequence with a selective refocusing pulse, and the chemical shift was measured relative to a D2O solution of DSS as an external reference. […] The NMR spectra show significant changes after adding 5 eq.
When 1 eq. […] However, when the concentration of BMVC-8C3O is increasing, the necessity of the annealing step decreases. For example, 5 eq. BMVC-8C3O induces spectra changes of the complex of HT24 and BMVC-8C3O in 150 mM K^+ solution at 37° C. (converting from non-parallel to parallel), and the annealing step is not necessary (see FIG. 2C).

Assay [2] has the same test system. The experiment in a line: CD thermal melting curve (265 nm) of HT24 G4 structure. It counts as binding. The procedure: as §1, §2
The BMVC-8C3O of the present invention can not only induce the formation of G4 structures, but also stabilize G4 structures. FIGS. 3A and 3B show the CD spectra of HT24 and its complex with 5 eq. BMVC-8C3O in 5 mM K^+ solution at 25° C. and 95° C., respectively. […] BMVC-8C3O in 5 mM or 150 mM K^+ solution at 265 nm, as a function graph of temperature. After adding 5 eq. BMVC-8C3O at 37° C.

Assay [3] concerns d(TTAGGG)4 (HT24), single strand sequence derived from telomere of human chromosome. The experiment in a line: CD spectra: induction of G4 structure formation of HT24 under a salt-deficient condition. The settings on record: 20 μM HT24, salt-deficient condition, room temperature, HT24:BMVC-8C3O 1:0 to 1:10. The assay is classed as binding. The procedure: as §1
First, circular dichroism spectroscopy (CD spectra) was used to examine whether BMVC-8C3O could induce the formation of G4 structure of human telomere, HT24, under a salt-deficient condition (Chang et al., 2007; Bugaut et al., 2008; Giraldo et al., 1994). […]
J-815 spectropolarimeter (Jasco, Japan) with a 2 nm bandwidth at a 50 nm/min scan speed and a 0.2 nm step resolution was used to obtain CD spectra, and the following data was provided as an average of 10 scan results. The CD spectra were measured by monitoring the G4 structures under N2 over the range of 210 nm to 350 nm, and the thermal melting curves, as a function of temperature, were obtained by monitoring the CD intensity at 265 nm. Three independently scans were recorded for each sample. The melting temperature (Tm) was measured from the first differentiation of the melting curve. […]

A further assay relates to CL1-0 lung cancer cells. The experiment in a line: Long-term cell proliferation curve, CL1-0 cancer cells. It counts as cell-based. The settings on record: long-term treated with 1.0 μM. The procedure: (§3) CL1-0 lung cancer cells and MRC-5 normal human lung fibroblasts were used in the following experiments, wherein CL1-0 cells were cultured in RPMI-1640 medium containing 10% FBS (fetal bovine serum) and 1% antibiotics (including penicillin and streptomycin), and MRC-5 cells were cultured in MEM medium containing 10% FBS and 1% antibiotics.
(§4) When these cells were subcultured, culture medium containing 1.0 μM BMVC-8C3O (1% DMSO for the control) was used to separate these cells into 5×10^5 cells/petri dish having a diameter of 6 cm. After 2 or 3 days, these cells were trypsinized and counted, and subcultured again with the same density and method. Cells were subcultured repeatedly until the total cell number was less than 5×10^5.
(§5) FIGS. 4A and 4B show the cell proliferation curves of CL1-0 cancer cells and MRC-5 normal cells that long-term treated with 1.0 μM BMVC-8C3O. From FIG. 4A, it is obvious that the proliferation of CL1-0 cancer cells is slowed from around day 10, and stopped at around day 20.

Assay [4] has as its system MRC-5 normal human lung fibroblasts. The assay is described as follows: Long-term cell proliferation curve, MRC-5 normal cells. It counts as cell-based. The settings on record: long-term treated with 1.0 μM. The method, then: as §3, §4, §5

Turning to `C[n+]1ccc(C=Cc2ccc3[nH]c4ccc(C=Cc5cc[n+](C)cc5)cc4c3c2)cc1.[I-].[I-]` [BMVC, 3,6-bis(1-methyl-4-vinylpyridinium)carbazole diiodide, reference compound], the “formation of G4 structures and conversion of G4 structures of human telomeres from nonparallel to parallel forms” value in assay [1] is reported as “cannot be achieved”. The “increase of the melting temperature of the G4 structures of human telomeres” value in assay [2] (summary statement, conditions not given at the place) is “approximately 20 °C”.
For `C[n+]1ccc(C=Cc2ccc3c(c2)c2cc(C=Cc4cc[n+](C)cc4)ccc2n3CCOCCOCCOCC[N+]2(C)CCCCC2)cc1.[I-].[I-].[I-]` [BMVC-8C3O, 3,6-Bis(1-methyl-4-vinylpyridium iodide)-9-(1-(1-methyl-piperidinium iodide)-3,6,9-trioxaundecane) carbazole], the “induction of G4 structure formation of HT24 (CD spectra)” value in assay [3] is “can induce G4 formation under a salt-deficient condition”. In addition, the “CD spectral change before and after annealing” value in assay [1] (150 mM K+ solution) is on record as “significant spectral changes”. Also, the “CD spectral change before and after annealing” value in assay [1] (150 mM Na+ solution) was “only CD intensity changes are observed”. Moreover, the “structural change of HT24 (imino proton 1H NMR spectra)” value in assay [1] (0.1 mM HT24, 5 eq. compound, 150 mM KCl, 2 h and 12 h after adding) was “can induce the structural change of HT24”. Moreover, the “conversion of G4 structure conformation of HT24 from non-parallel to parallel (CD spectra)” value in assay [1] (5 eq. compound, 150 mM K+ solution, 37° C., without annealing) is given as “can convert the conformation of G4 structures from non-parallel to parallel”. Also, the “formation of G4 structures and conversion of G4 structures of human telomeres from nonparallel to parallel forms” value in assay [1] was “can induce the formation of G4 structures and convert the G4 structures of human telomeres from nonparallel to parallel forms”. Moreover, the “enhancement of melting temperature (Tm) of HT24” value in assay [2] (5 eq. compound, 37° C. 24 hours, 5 mM K+ solution) was “about 50 °C”. In assay [2] (5 eq. compound, 37° C. 24 hours, 5 mM K+ solution, HT24 alone approximately 41° C.), the “melting temperature (Tm) of HT24 complex” value was more than 90 °C. Moreover, in the assay on CL1-0 lung cancer cells, the “day at which proliferation of CL1-0 cancer cells is stopped” value is approximately 20 days and the “day from which proliferation of CL1-0 cancer cells is slowed” value is approximately 10 days. Also, the “effect on proliferation of MRC-5 normal cells” value in assay [4] is reported as “does not significantly affect”.
